# Experiments:
# [1] = test system: human cervical carcinoma cells (HeLa); assay: Cytotoxicity, MTT assay, HeLa; type: cell-based
# From the text: (§1) Compounds 83–102 were screened against human neoplastic cell lines, such as human breast cancer cells (MCF-7), human colon cancer cells (HCT116), human lung carcinoma cells (A549), human gastric adenocarcinoma cells (SGC7901), human liver hepatocellular carcinoma cell line (HepG2), human cervical carcinoma cells (HeLa), human acute mononuclear granulocyte leukaemia (THP-1), and human normal hepatic cell line (LO2) using modified MTT assay. All the cells were obtained from the American Type Culture Collection (ATCC, Manassas, VA). The cells were cultured in DMEM or 1640. Positive controls (Doxorubicin (DOX) and Curcumin) and BAPs were initially dissolved in dimethyl sulphoxide (DMSO). Experimental concentration of DMSO was always 0.1% (v/v). The concentrations of BAPs and positive controls were 50, 20, 10, 5, 2.5, 1, 0.5, 0.1, 0.05, and 0.01 μg/mL.
# (§2) The cells (1 × 10^4 cells/well) were seeded in a 96-well plate and incubated for 24 h. Cells treated with serial concentrations of drugs were incubated for another 24 h. After the media removed, 20 μL of MTT (5 mg/mL) solution was added and incubated for 4 h at 37 °C. The MTT solution was removed and then 150 μL of DMSO was added. The optical density was measured with a multi-well plate reader (TECAN, Mӓnnedorf, Switzerland) at 570 nm. The results are expressed as a decrease in the cell viability (%) in comparison to untreated controls. The concentration of each compound was examined in triplicate, and the IC50 values are expressed in Table 1.
# [2] = test system: TNF-α production in LPS-stimulated RAW264.7 cells; assay: TNF-α production in LPS-stimulated RAW264.7 cells, ELISA; type: cell-based; conditions: BAPs 6.0 μM, PDTC 30 μM, LPS 1.0 μg/mL
# Description: The anti-inflammatory activities of BAPs were evaluated by ELISA. After pretreated with 30 μM of positive drug pyrrolidinedithiocarbamate (PDTC) or 6 μM of BAPs for 2 h, cells were treated with LPS (1.0 μg/mL) for 22 h. The culture media were collected and centrifuged for detecting the expression levels of TNF-α by an ELISA kit (eBioScience, San Diego, CA).
# TNF-α is a common pro-inflammatory factors that can be produced by LPS-stimulated RAW264.7 macrophage[14]^,[24]. In order to evaluate the anti-inflammatory activity of BAPs, the effect of BAPs on TNF-α production in LPS-stimulated RAW264.7 cells was detected by ELISA. […] Only 92 presented slightly lower expression of TNF-α secretion (about 57%).
# [3] = test system: NF-κB p65 nuclear translocation in LPS-stimulated RAW264.7 cells; assay: NF-κB p65 nuclear translocation, immunofluorescence, RAW264.7; type: cell-based; conditions: RAW264.7, LPS 1.0 μg/mL, 4.0 μM
# Description: RAW264.7 cells were pretreated in 96-well plates with LPS (1 μg/mL) for 15 min and then treated with 96 for 2 h. Similarly, HepG2 cells were pretreated with TNF-α (10 ng/mL) for 15 min and then treated with 96 for 4 h. The cells were fixed with 2% paraformaldehyde for 15 min at 37 °C and permeabilized using 0.1% Triton X-100 for 10 min at RT. After blockage with 3% BSA for 30 min, the cells were incubated with anti-NF-κB p65 antibody (NOVUS BIOLOGICALS, Colorado, USA) at 4 °C overnight. After washing, the anti-mouse Alexa488-conjugated secondary antibody (Jackson Immuno Research, West Grove, PA) was incubated for 30 min at RT. After washed with PBS, the cells were incubated in 4-6-diamidino-2-phenyindole (DAPI; Sigma, St. Louis, MO) for 15 min in the dark at RT. The cell images were simultaneously viewed using a microscopy system in High Throughput Screen (Operetta, PerkinElmer, Waltham, MA).
# [4] = test system: human acute mononuclear granulocyte leukaemia (THP-1); assay: Cytotoxicity, MTT assay, THP-1; type: cell-based; conditions: for IC50: MTT, 24 h
# From the text: as §1, §2
# [5] = test system: BAX expression in HepG2 cells; assay: Western blot, BAX expression in HepG2 cells; type: cell-based, human; conditions: HepG2, 1.0, 2.0, and 4.0 μM
# Description: The HepG2 cells were treated with BAP 96 at different concentrations (1.0, 2.0, and 4.0 µM) for 3 h, and washed twice by PBS. The cells were lysed and the extracted proteins of cell lysates were separated by 10% SDS-PAGE gel electrophoresis, then transferred onto polyvinylidene fluorides membranes. The membranes were probed with antibodies and visualized using an enhanced chemiluminescence (ECL) detection kit.
# [6] = test system: Bcl-2 expression in HepG2 xenografts; assay: Western blot, Bcl-2 in HepG2 xenografts; type: in vivo, Balb/c nude mice; conditions: 0.2, 1.0 and 5.0 mg/kg
# Description: (§3) The HepG2 cells xenografts were established using the Balb/c nude mice (female, 7-week-old, 17–19 g, n = 30) (Shanghai Laboratory Animal Center, Shanghai Shi, China) were used to investigate the anti-hepatoma effect of 96. Animal experiments were reviewed and approved by the Binzhou Medical University Experimental Animal Committee. Briefly, HepG2 cells (1 × 10^7/0.2 ml PBS/mouse) were inoculated subcutaneously. Three days after the inoculation, the mice were randomly divided into five groups: the saline treated group (Control), 96 (0.2 mg/kg) group, 96 (1.0 mg/kg) treated group, 96 (5.0 mg/kg) treated group, and DOX (1.0 mg/kg) treated group. 96 were dissolved in saline containing 1% of DMSO and administered intraperitoneally every 2 d for 20 days. DOX was also administered intraperitoneally every 2 d for 20 d. The body weight and HepG2 xenografts volumes were recorded from the day of treatment, and xenografts volumes were calculated using the equation: tumour volume = length×(width)[2]×π/6. At the end of the experiment, mice were sacrificed and the xenografts were obtained for western blotting, HE staining and immunohistochemistry staining.
# (§4) Western blotting was performed to detect the expression of Bcl-2, Bax and C-caspase-3 in HepG2 xenografts. Fresh HepG2 xenografts tissues were lysed and the obtained proteins were processed as the protein obtained from the HepG2 cells.
# [7] = test system: HepG2 xenografts; assay: HE staining of HepG2 xenografts; type: in vivo, Balb/c nude mice
# Description: as §3
# The HepG2 xenografts tissues were embedded using the paraffin, and sectioned for HE staining and immunohistochemistry staining. HE staining was performed routinely. The immunohistochemistry staining carried out as following. Briefly, the processed sections were incubated with the primary antibodies: Bcl-2 and TNF-α (NOVUS BIOLOGICALS) at 4 °C overnight. After washing, the anti-rabbit peroxidase-conjugated secondary antibody (Sigma-Aldrich, St. Louis, MO) was incubated for 1 h at RT. After washing with PBS, the cells were visualized using the 3,3'-diaminobenzidine (DAB) solution under the light microscope. The cell images were taken using a light microscopy (Olympus, Tokyo, Japan).
# [8] = test system: BAX expression in HepG2 xenografts; assay: Western blot, BAX in HepG2 xenografts; type: in vivo, Balb/c nude mice; conditions: 0.2, 1.0 and 5.0 mg/kg
# Description: as §3, §4
# [9] = quotient of IC50 towards LO2 cells
smiles,measurement,setting,value
CN1CC(=Cc2cccc(N=Cc3cc(Br)ccc3O)c2)C(=O)C(=Cc2ccccc2F)C1 [Compound 96],IC50,"[1]; Homo sapiens, HeLa, MTT, 24 h",2.1 ± 0.8 µM
same,HeLa SI (selectivity index),[1]; [9],9.5
same,Inhibition of TNF-α secretion compared with PDTC (in words),[2],strongest inhibitory effect
same,TNF-α secretion,[2],45%
same,p65 nuclear translocation,[3],prevented the p65 nuclear translocation
same,IC50,"[4]; Homo sapiens, THP-1, 24 h",< 2 µM
same,IC50,[4],1.1 ± 0.6 µM
same,THP-1 SI (selectivity index),[4]; [9],18.1
same,Expression of pro-apoptotic protein BAX,[5],dose-dependently increased
same,Expression of Bcl-2 in HepG2 xenografts,[6],dose-dependently decreased
same,"Fracted cells, HE staining","[7]; 96 5.0 mg/kg, DOX 1.0 mg/kg",a plenty of fracted cells
same,"Histopathological change of cell nucleus, HE staining","[7]; HepG2 xenografts, versus model group",made the HepG2 cell nucleus wrinkled
same,Expression of BAX in HepG2 xenografts,[8],significantly increased in a dose-dependent manner
